# Patent EP3072514A1, “Novel oral anticoagulants (NOACs) for preventing development and aggravation of atrial fibrillation” (Université Pierre et Marie Curie - Paris 6 (UPMC), priority 2015, dated 2016)
# Key:
# Type in all cases: in vivo, Male OFA Sprague-dawley rats
# [1] = system: rats with occlusion of left coronary artery followed by reperfusion (I/R); assay: Echocardiographic evaluation of left atrium and left ventricle in rats after ischemia/reperfusion (I/R)
# Excerpt: • Figure 1 is a combination of two graphs showing left atrium (LA) area after one month of treatment with DTI Dabigatran (A) or S35792 (B). Vehicle (V) is 60% H2O/40% PEG 300 for dabigatran and saline for S35972. Treatment of rats started just after thoracotomy without (Sham) or with occlusion of left coronary artery followed by reperfusion (I/R). […] Vehicle (V) is 60% H2O/40% PEG 300 for dabigatran and saline for S35972. Treatment of rats started just after thoracotomy without (Sham) or with occlusion of left coronary artery followed by reperfusion (I/R). Results are presented as mean +/- S.E.M. * P<0.05; ** P<0.001, *** P<0.001 vs Sham; #P<0.05 vs untreated I/R. • Figure 3 is a combination of two graphs showing thrombin time (TT), which reflects anticoagulant activity, and plasma concentrations of Dabigatran (A) and S35792 (B) in rats after throracotomy with occlusion of left coronary artery followed by reperfusion (I/R). Vehicle (V) is 60% H2O/40% PEG 300 for dabigatran and saline for S35972. Tests were carried out on blood collected by cardiac puncture at sacrifice (i.e. for Dabigatran, 90 minutes after last oral administration). DTI plasma levels are quantified using LC-MS/MS. TT are expressed as mean +/- S.E.M with reference to the mean value of sham animals that underwent thoracotomy only. *** P<0.001 vs untreated I/R. • Figure 4 is a combination of three graphs showing left atrium (LA) area (A) and diameter (B) and left ventricle end-diastolic (LVED) diameter (C) after two months of treatment with S35972. Treatment of rats started just after thoracotomy without (Sham) or with occlusion of left coronary artery followed by reperfusion (I/R). LA area was measured by bidimensional echocardiography. LA and LVED diameters were measured in time-motion mode. Results are presented as mean +/- S.E.M. *P<0.05, **P<0.01 and *** P<0.001 vs Sham; ^#P<0.05 ^###P<0.001 vs untreated I/R. • Figure 5 is a graph showing the impact of S35972 administration during two months on the duration of an episode of AF in rats undergone thoracotomy without (Sham) or with occlusion of left coronary artery followed by reperfusion (I/R). AF duration is measured as the time between the end of the electric stimulation and the return to sinusoidal rhythm. […] Rats undergone thoracotomy without (Sham) or with occlusion of left coronary artery followed by reperfusion (I/R). Expression of mRNA was measured with real-time qPCR. […] Treatment of rats started one month post thoracotomy without (Sham) or with occlusion of left coronary artery followed by reperfusion (I/R). LA area was measured by bidimensional echocardiography. LVED and LA diameters were measured in time-motion mode. […] Rats undergone thoracotomy without (Sham) or with occlusion of left coronary artery followed by reperfusion (I/R). AF duration is measured as the time between the end of the electric stimulation and return to sinusoidal rhythm. Results are presented as mean +/- S.E.M.
# Animals were anesthetized with 30 mg/kg sodium pentobarbital, and then intubated and ventilated at 60 respirations/min while body temperature was maintained at 37°C. Rats underwent thoracotomy and their left coronary artery was either left intact (Sham) or occluded with a 4.0 silk suture at 1 mm from the artery origin. Ischemia was maintained for 30 min and the clamp was removed to initiate a definitive reperfusion phase. […]
# ANP = assay: mRNA expression by real-time qPCR in atria and ventricle of I/R rats; settings: 6 mg/kg/day, 2 months
# Excerpt: (§1) • Figure 1 is a combination of two graphs showing left atrium (LA) area after one month of treatment with DTI Dabigatran (A) or S35792 (B). Vehicle (V) is 60% H2O/40% PEG 300 for dabigatran and saline for S35972. Treatment of rats started just after thoracotomy without (Sham) or with occlusion of left coronary artery followed by reperfusion (I/R). Results are presented as mean +/- S.E.M, *P<0.05, **P<0.01 and *** P<0.001 vs Sham; ^##P<0.01 and ^###P<0.001 vs untreated I/R. • Figure 2 is a combination of graphs showing left ventricular end-diastolic (LVED) diameter and fractional shortening (FS) after one month of treatment with Dabigatran (A) or S35792 (B). Vehicle (V) is 60% H2O/40% PEG 300 for dabigatran and saline for S35972. Treatment of rats started just after thoracotomy without (Sham) or with occlusion of left coronary artery followed by reperfusion (I/R). Results are presented as mean +/- S.E.M. * P<0.05; ** P<0.001, *** P<0.001 vs Sham; #P<0.05 vs untreated I/R. • Figure 3 is a combination of two graphs showing thrombin time (TT), which reflects anticoagulant activity, and plasma concentrations of Dabigatran (A) and S35792 (B) in rats after throracotomy with occlusion of left coronary artery followed by reperfusion (I/R). Vehicle (V) is 60% H2O/40% PEG 300 for dabigatran and saline for S35972. Tests were carried out on blood collected by cardiac puncture at sacrifice (i.e. for Dabigatran, 90 minutes after last oral administration). DTI plasma levels are quantified using LC-MS/MS. TT are expressed as mean +/- S.E.M with reference to the mean value of sham animals that underwent thoracotomy only. *** P<0.001 vs untreated I/R. • Figure 4 is a combination of three graphs showing left atrium (LA) area (A) and diameter (B) and left ventricle end-diastolic (LVED) diameter (C) after two months of treatment with S35972. Treatment of rats started just after thoracotomy without (Sham) or with occlusion of left coronary artery followed by reperfusion (I/R). LA area was measured by bidimensional echocardiography. LA and LVED diameters were measured in time-motion mode. Results are presented as mean +/- S.E.M. *P<0.05, **P<0.01 and *** P<0.001 vs Sham; ^#P<0.05 ^###P<0.001 vs untreated I/R. • Figure 5 is a graph showing the impact of S35972 administration during two months on the duration of an episode of AF in rats undergone thoracotomy without (Sham) or with occlusion of left coronary artery followed by reperfusion (I/R). AF duration is measured as the time between the end of the electric stimulation and the return to sinusoidal rhythm. Results are presented as mean +/- S.E.M, *P<0.05 vs Sham; ^##P<0.01 vs untreated I/R, • Figure 6 is a combination of graphs showing the impact of treatments with 25 mg/kg/d dabigatran for 4 weeks and 6 mg/kg/d S35972 for 8 weeks on atrial (A) and ventricular (B) expression of myosin heavy chain (MHC) isoforms. Rats undergone thoracotomy without (Sham) or with occlusion of left coronary artery followed by reperfusion (I/R). Expression of mRNA was measured with real-time qPCR. Results are presented as mean +/- S.E.M. *P<0.05, **P<0.01 vs Sham; #P<0.05 vs untreated I/R. • Figure 7 is a combination of graphs showing the impact of 2 months S35972 administration on the expression of the hypertrophic markers, brain and atrial natriuretic peptides (BNP and ANP) in atria (A) and ventricle (B). Rats undergone thoracotomy without (Sham) or with occlusion of left coronary artery followed by reperfusion (I/R). Expression of mRNA was measured with real-time qPCR. Results are presented as mean +/- S.E.M. *P<0.05, ***P<0.001 vs Sham; #P<0.05, ##P<0.01 vs untreated I/R. • Figure 8 is a combination of graphs showing the impact of 2 months S35972 administration on the expression of fibrotic markers, plasminogen activator inhibitor 1 (PAI-1, A) and heparin-binding epidermal growth factor (HB-EGF, B) in atria and ventricle. Rats undergone thoracotomy without (Sham) or with occlusion of left coronary artery followed by reperfusion (I/R). […]
# BNP = assay: as above; settings: 6 mg/kg/day, 2 months
# Excerpt: as §1
# PAI-1 = assay: as above; settings: 2 months administration
# Excerpt: as §1
# HB-EGF = assay: as above; settings: 2 months administration
# Excerpt: as §1
# [2] = 6 mg/kg/day for 8 weeks, started just after I/R
# [3] = four weeks post-I/R, one month of treatment started just after I/R
substance,measurement,setting,value
"4-oxo-3-(2-pyridin-2-ylethylamino)-4,6,7,8-tetrahydro-pyrrolo[1,2-a]pyrazine-6-carboxylic acid 2-ethylcarbamoyl methoxy-benzylamide [S35972]",atrial diameter,[1]; [2],significantly reduces
same,left atrium area,[1]; [2],decreases the left atrium area
same,ventricular diameter (LVED diameter),[1]; [2],significantly reduces
same,dilatation of left atrium (left atrium (LA) area),[1]; [3],prevent the dilatation of left atrium
same,ventricular diameter (LVED diameter),[1]; [3],do not impact
same,ventricular function (fractional shortening),[1]; [3],do not impact
same,expression of ANP (mRNA) in the atrium,ANP; atrium,does not impact its expression
same,synthesis of ANP (mRNA) in the ventricle,ANP; ventricle,significantly reduces its synthesis
same,synthesis of BNP (mRNA) in the atrium,BNP; atrium,prevents the synthesis of BNP
same,synthesis of BNP (mRNA) in the ventricle,BNP; ventricle,prevents the synthesis of BNP
same,mRNA expression of PAI-1 in atria,PAI-1; atria,has an inhibitory effect
same,mRNA expression of PAI-1 in ventricles,PAI-1; ventricles,inhibitory effect in atria only
same,induction of HB-EGF mRNA in atria,HB-EGF; atria,prevents the induction of HB-EGF mRNA
same,induction of HB-EGF mRNA in ventricles,HB-EGF; ventricles,prevents the induction of HB-EGF mRNA
